Patent publication US20050069522A1, “Combination pharmaceutical agents as inhibitors of HCV replication” (priority 2002, published 2005)

tested on: HCV replicon (HCV 1b-377-neo replicon cells); test: HCV replicon cell line FRET assay; type: cell-based; details: Hepatitis C virus; HCV replicon cell line, FRET assay; read-out: Replicon Inhibition Range EC50

SMILES | EC50 [nM]
C[C@H](NC(=O)OCc1ccccc1)C(=O)Nc1ccc(C2S/C(=N\c3cccc(F)c3)N(Cc3cccnc3)C2=O)cc1 (stereo partly drawn) [Compound 27] | < 100
O=C(Nc1ccc(C2S/C(=N\c3ccc4c(c3)CCC4)N(Cc3ccco3)C2=O)cc1)[C@@H]1CCCN1C(=O)OCc1ccccc1 (stereo partly drawn) [Compound 38] | 100 to 1000
O=C(Nc1ccc(C2S/C(=N\c3ccc(N4CCOCC4)cc3)N(Cc3ccccn3)C2=O)cc1)[C@@H]1CCCN1C(=O)C1(c2ccccc2)CC1 (stereo partly drawn) [Compound 118] | < 100
O=C(Nc1ccc(C2S/C(=N\c3cccc4ccncc34)N(Cc3ccco3)C2=O)cc1)[C@@H]1CCCN1C(=O)OCc1ccccc1 (stereo partly drawn) [Compound 11] | < 100
CC(C)(C)/N=C1\SC(c2ccc(NC(=O)[C@@H]3CCCN3C(=O)OCc3ccccc3)cc2)C(=O)N1Cc1ccccn1 (stereo partly drawn) [Compound 89] | 100 to 1000
O=C(Nc1ccc(C2S/C(=N\c3ccc(N4CCOCC4)cc3)N(Cc3ccccn3)C2=O)cc1)[C@@H]1CCCN1C(=S)NCc1ccccc1 (stereo partly drawn) [Compound 136] | < 100
O=C(Nc1ccc(C2S/C(=N\c3ccc(N4CCOCC4)cc3)N(Cc3ccccn3)C2=O)cc1)[C@@H]1CCCN1C(=O)Cc1c(Cl)cccc1Cl (stereo partly drawn) [Compound 104] | < 100
CC(C)(C)O[C@@H]1C[C@@H](C(=O)Nc2ccc(C3S/C(=N\c4ccc(N5CCOCC5)cc4)N(Cc4ccccn4)C3=O)cc2)N(C(=O)OCc2ccccc2)C1 (stereo partly drawn) [Compound 79] | 1000 to 5000
C[C@H](NC(=O)OCc1ccccc1)C(=O)Nc1ccc(C2SC3=Nc4ccccc4CN3C2=O)cc1 (stereo partly drawn) [Compound 138] | 1000 to 5000
O=C(Nc1ccc(C2S/C(=N\c3cccc(F)c3)N(Cc3ccccn3)C2=O)cc1)[C@@H]1CCCN1C(=O)Cc1ccccc1 (stereo partly drawn) [Compound 97] | < 100
O=C(Nc1ccc(C2S/C(=N\c3ccc(N4CCOCC4)cc3)N(Cc3ccccn3)C2=O)cc1)[C@@H]1CCCN1C(=O)C(F)c1ccccc1 (stereo partly drawn) [Compound 110] | < 100
COc1cccc(CN2C(=O)C(c3ccc(NC(=O)[C@@H]4CCCN4C(=O)OCc4ccccc4)cc3)S/C2=N\c2cccc(F)c2)c1 (stereo partly drawn) [Compound 13] | 100 to 1000
C[C@H](NC(=O)OCc1ccccc1)C(=O)Nc1ccc(C2S/C(=N\c3cccc(F)c3)N(Cc3ccc(OC(F)(F)F)cc3)C2=O)cc1 (stereo partly drawn) [Compound 23] | 1000 to 5000
O=C(Nc1ccc(C2S/C(=N\c3ccc(F)c(Cl)c3)N(Cc3ccco3)C2=O)cc1)[C@@H]1CCCN1C(=O)OCc1ccccc1 (stereo partly drawn) [Compound 51] | 1000 to 5000
CN=C1SC(c2ccc(NC(=O)[C@H](C)NC(=O)OCc3ccccc3)cc2)C(=O)N1Cc1ccccn1 (stereo partly drawn) [Compound 84] | 100 to 1000
C[C@H](NC(=O)OCc1ccccc1)C(=O)Nc1ccc(C2S/C(=N\c3cccc(F)c3)N(CCOc3ccccc3)C2=O)cc1 (stereo partly drawn) [Compound 21] | 1000 to 5000
O=C(Nc1ccc(C2S/C(=N\c3cccc(F)c3)N(Cc3ccc(OC(F)(F)F)cc3)C2=O)cc1)[C@@H]1CCCN1C(=O)OCc1ccccc1 (stereo partly drawn) [Compound 19] | 1000 to 5000
O=C(Nc1ccc(C2S/C(=N\c3ccc4c(c3)OCCO4)N(Cc3ccco3)C2=O)cc1)[C@@H]1CCCN1C(=O)OCc1ccccc1 (stereo partly drawn) [Compound 63] | < 100
CCc1cccc(/N=C2\SC(c3ccc(NC(=O)[C@@H]4CCCN4C(=O)OCc4ccccc4)cc3)C(=O)N2Cc2ccco2)c1 (stereo partly drawn) [Compound 36] | 1000 to 5000
O=C(Nc1ccc(C2S/C(=N\c3ccc(N4CCOCC4)cc3)N(Cc3ccco3)C2=O)cc1)[C@@H]1CCCN1C(=O)OCc1ccccc1 (stereo partly drawn) [Compound 7] | < 100

SMILES | EC50 [nM]
C[C@H](NC(=O)OCc1ccccc1)C(=O)Nc1ccc(C2S/C(=N\c3ccc4c(c3)CCC4)N(Cc3ccco3)C2=O)cc1 (stereo partly drawn) [Compound 39] | 1000 to 5000
O=C(Nc1ccc(C2S/C(=N\c3cccc(F)c3)N(Cc3ccco3)C2=O)cc1)[C@@H]1CCC(=O)N1C(=O)OCc1ccccc1 (stereo partly drawn) [Compound 8] | 100 to 1000
CC(C)/N=C1\SC(c2ccc(NC(=O)[C@H](C)NC(=O)[C@@H](C)c3ccccc3)cc2)C(=O)N1Cc1ccccn1 (stereo partly drawn) [Compound 121] | 100 to 1000
C[C@H](NC(=O)Cc1ccccc1)C(=O)Nc1ccc(C2SC3=Nc4ccccc4CN3C2=O)cc1 (stereo partly drawn) [Compound 137] | 100 to 1000
C[C@H](NC(=O)OCc1ccccc1)C(=O)Nc1ccc(C2S/C(=N\Cc3ccccn3)N(C)C2=O)cc1 (stereo partly drawn) [Compound 86] | 1000 to 5000
C[C@H](NC(=O)OCc1ccccc1)C(=O)Nc1cccc(C2S/C(=N\c3cccc(F)c3)N(Cc3ccco3)C2=O)c1 (stereo partly drawn) [Compound 32] | 1000 to 5000
O=C(Nc1ccc(C2S/C(=N\c3ccc(N4CCOCC4)cc3)N(Cc3ccccn3)C2=O)cc1)[C@@H]1C[C@@H](O)CN1C(=O)OCc1ccccc1 (stereo partly drawn) [Compound 78] | 100 to 1000
O=C(Nc1ccc(C2S/C(=N\c3cccc(F)c3)N(CCOc3ccccc3)C2=O)cc1)[C@@H]1CCCN1C(=O)OCc1ccccc1 (stereo partly drawn) [Compound 17] | 1000 to 5000
CO[C@@H](C(=O)N1CCC[C@H]1C(=O)Nc1ccc(C2S/C(=N\c3ccc(N4CCOCC4)cc3)N(Cc3ccccn3)C2=O)cc1)c1ccccc1 (stereo partly drawn) [Compound 116] | < 100
COc1ccc(CC(=O)N2CCC[C@H]2C(=O)Nc2ccc(C3S/C(=N\c4ccc(N5CCOCC5)cc4)N(Cc4ccccn4)C3=O)cc2)cc1 (stereo partly drawn) [Compound 106] | 100 to 1000
C[C@H](NC(=O)OCc1ccccc1)C(=O)Nc1ccc(C2S/C(=N\c3cccnc3)N(Cc3cccc(F)c3)C2=O)cc1 (stereo partly drawn) [Compound 76] | < 100
C/N=C1\SC(c2ccc(NC(=O)[C@H](C)NC(=O)C(c3ccccc3)c3ccccc3)cc2)C(=O)N1Cc1ccccn1 (stereo partly drawn) [Compound 111] | < 100
O=C(Nc1ccc(C2S/C(=N\c3cccc(F)c3)N(CCc3cccs3)C2=O)cc1)[C@@H]1CCCN1C(=O)OCc1ccccc1 (stereo partly drawn) [Compound 20] | 1000 to 5000
O=C(Nc1ccc(C2S/C(=N\c3cccc(F)c3)N(Cc3ccco3)C2=O)cc1)[C@@H]1CCCN1C(=O)COc1ccccc1 (stereo partly drawn) [Compound 130] | 100 to 1000
C[C@H](NC(=O)C(c1ccccc1)c1ccccc1)C(=O)Nc1ccc(C2S/C(=N\c3ccc(N4CCOCC4)cc3)N(Cc3ccccn3)C2=O)cc1 (stereo partly drawn) [Compound 112] | < 100
O=C(Nc1ccc(C2S/C(=N\c3cccc(F)c3)N(Cc3ccco3)C2=O)cc1)[C@@H]1CCCN1C(=O)Cc1ccc(Cl)cc1 (stereo partly drawn) [Compound 128] | 100 to 1000
N#Cc1cccc(/N=C2\SC(c3ccc(NC(=O)[C@@H]4CCCN4C(=O)OCc4ccccc4)cc3)C(=O)N2Cc2ccco2)c1 (stereo partly drawn) [Compound 47] | < 100
CO[C@H](C(=O)N[C@@H](C)C(=O)Nc1ccc(C2S/C(=N\C(C)C)N(Cc3ccccn3)C2=O)cc1)c1ccccc1 (stereo partly drawn) [Compound 122] | < 100
Cc1cc(F)ccc1/N=C1\SC(c2ccc(NC(=O)[C@@H]3CCCN3C(=O)OCc3ccccc3)cc2)C(=O)N1Cc1ccco1 (stereo partly drawn) [Compound 57] | 1000 to 5000
O=C(Nc1ccc(C2S/C(=N\c3cccc(F)c3)N(Cc3ccco3)C2=O)cc1)[C@@H]1CCCN1C(=O)Cc1ccncc1 (stereo partly drawn) [Compound 129] | 100 to 1000

SMILES | EC50 [nM]
CN1C(=O)C(c2ccc(NC(=O)[C@@H]3CCCN3C(=O)OCc3ccccc3)cc2)S/C1=N\Cc1ccccn1 (stereo partly drawn) [Compound 87] | 100 to 1000
COc1ccc(CCN2C(=O)C(c3ccc(NC(=O)[C@@H]4CCCN4C(=O)OCc4ccccc4)cc3)S/C2=N\c2cccc(F)c2)cc1OC (stereo partly drawn) [Compound 30] | 1000 to 5000
COc1ccc(C(F)(F)F)cc1/N=C1\SC(c2ccc(NC(=O)[C@H](C)NC(=O)OCc3ccccc3)cc2)C(=O)N1Cc1ccco1 (stereo partly drawn) [Compound 50] | 100 to 1000
CC(C)/N=C1\SC(c2ccc(NC(=O)[C@H](C)NC(=O)C(c3ccccc3)c3ccccc3)cc2)C(=O)N1Cc1ccccn1 (stereo partly drawn) [Compound 123] | < 100
CCc1cccc(/N=C2\SC(c3ccc(NC(=O)[C@H](C)NC(=O)OCc4ccccc4)cc3)C(=O)N2Cc2ccco2)c1 (stereo partly drawn) [Compound 37] | 1000 to 5000
CC(C)/N=C1\SC(c2ccc(NC(=O)[C@H](C)NC(=O)Cc3ccccc3)cc2)C(=O)N1Cc1ccccn1 (stereo partly drawn) [Compound 102] | < 100
Cc1cnc(CN2C(=O)C(c3ccc(NC(=O)[C@@H]4CCCN4C(=O)Cc4ccccc4)cc3)S/C2=N\c2ccc(N3CCOCC3)cc2)cn1 (stereo partly drawn) [Compound 95] | < 100
C[C@H](C(=O)N1CCC[C@H]1C(=O)Nc1ccc(C2S/C(=N\c3ccc(N4CCOCC4)cc3)N(Cc3ccccn3)C2=O)cc1)c1ccccc1 (stereo partly drawn) [Compound 114] | < 100
C[C@H](NC(=O)OCc1ccccc1)C(=O)Nc1ccc(C2S/C(=N\c3ccc(C(F)(F)F)cc3)N(Cc3ccco3)C2=O)cc1 (stereo partly drawn) [Compound 62] | 1000 to 5000
CCOC(=O)/N=C1\SC(c2ccc(NC(=O)[C@H](C)NC(=O)OCc3ccccc3)cc2)C(=O)N1Cc1cccnc1 (stereo partly drawn) [Compound 92] | < 100
COc1ccc(/N=C2\SC(c3ccc(NC(=O)[C@@H]4CCCN4C(=O)OCc4ccccc4)cc3)C(=O)N2Cc2ccco2)cn1 (stereo partly drawn) [Compound 44] | 100 to 1000
C[C@H](NC(=O)OCc1ccccc1)C(=O)Nc1ccc(C2S/C(=N\c3ccc(N4CCOCC4)cc3)N(Cc3ccco3)C2=O)cc1 (stereo partly drawn) [Compound 10] | < 100
CCC(C)c1ccc(/N=C2\SC(c3ccc(NC(=O)[C@@H]4CCCN4C(=O)OCc4ccccc4)cc3)C(=O)N2Cc2ccco2)cc1 (stereo partly drawn) [Compound 45] | 100 to 1000
C[C@H](NC(=O)OCc1ccccc1)C(=O)Nc1ccc(C2S/C(=N\c3ccc(N4CCOCC4)cc3)N(Cc3ccccn3)C2=O)cc1 (stereo partly drawn) [Compound 72] | < 100
C[C@H](NC(=O)OCc1ccccc1)C(=O)Nc1ccc(C2S/C(=N\c3ccc(F)cc3Cl)N(Cc3ccco3)C2=O)cc1 (stereo partly drawn) [Compound 60] | 1000 to 5000
O=C(Nc1ccc(C2S/C(=N\c3ccc(N4CCOCC4)cc3)N(Cc3ccccn3)C2=O)cc1)[C@@H]1CCCN1C(=O)Cc1ccccc1Cl (stereo partly drawn) [Compound 108] | < 100
CCC(C)c1ccc(/N=C2\SC(c3ccc(NC(=O)[C@H](C)NC(=O)OCc4ccccc4)cc3)C(=O)N2Cc2ccco2)cc1 (stereo partly drawn) [Compound 46] | 1000 to 5000
CN(C)c1ccc(CC(=O)N2CCC[C@H]2C(=O)Nc2ccc(C3S/C(=N\c4ccc(N5CCOCC5)cc4)N(Cc4ccccn4)C3=O)cc2)cc1 (stereo partly drawn) [Compound 103] | 100 to 1000
O=C(Nc1ccc(C2S/C(=N\c3cccnc3)N(Cc3cccc(F)c3)C2=O)cc1)[C@@H]1CCCN1C(=O)Cc1ccccc1 (stereo partly drawn) [Compound 100] | < 100
O=C(Nc1ccc(C2S/C(=N\c3ccc(N4CCOCC4)cc3)N(Cc3ccccn3)C2=O)cc1)[C@@H]1CCCN1C(=O)OCc1ccccc1 (stereo partly drawn) [Compound 73] | < 100
